Source: PMC12071598, “Piperazine-Substituted Pyranopyridines Exhibit Antiproliferative Activity and Act as Inhibitors of HBV Virion Production” (International Journal of Molecular Sciences, 2025)

Experiments:
[1] = system: GBM5522; assay: Antiproliferative activity, MTT assay, GBM5522; format: cell-based; details: low-passage glioblastoma GBM5522, 72 h
[2] = system: GBM6138; assay: Antiproliferative activity, MTT assay, GBM6138; format: cell-based; details: low-passage glioblastoma GBM6138, 72 h

SMILES | IC50 [1] [µM] | IC50 [2] [µM]
CC1(C)Cc2c(C#N)c(SCC(N)=O)nc(N3CCNCC3)c2CO1 [DO11-37, 2-[(5-Cyano-3,3-dimethyl-8-piperazin-1-yl-3,4-dihydro-1H-pyrano[3,4-c]pyridin-6-yl)thio]acetamide] | 309 ± 63.3 | 571 ± 77.7
CC1(C)Cc2c(C#N)c(SCc3ccccc3Cl)nc(N3CCNCC3)c2CO1 [DO11-42, 6-[(2-Chlorobenzyl)thio]-3,3-dimethyl-8-piperazin-1-yl-3,4-dihydro-1H-pyrano[3,4-c]pyridine-5-carbonitrile] | 4.2 ± 1.3 | 51.2 ± 10.7
COc1cccc(NC(=O)CSc2nc(N3CCNCC3)c3c(c2C#N)CC(C)(C)OC3)c1 [DO11-47, 2-[(5-Cyano-3,3-dimethyl-8-piperazin-1-yl-3,4-dihydro-1H-pyrano[3,4-c]pyridin-6-yl)thio]-N-(3-methoxyphenyl)acetamide] | 20 ± 6.8 | 104 ± 22.1
COc1ccccc1NC(=O)CSc1nc(N2CCNCC2)c2c(c1C#N)CC(C)(C)OC2 [DO11-48, 2-[(5-Cyano-3,3-dimethyl-8-piperazin-1-yl-3,4-dihydro-1H-pyrano[3,4-c]pyridin-6-yl)thio]-N-(2-methoxyphenyl)acetamide] | 3.8 ± 1.5 | 27.9 ± 2.6
CC(=O)c1ccc(NC(=O)CSc2nc(N3CCNCC3)c3c(c2C#N)CC(C)(C)OC3)cc1 [DO11-50, N-(4-acetylphenyl)-2-[(5-cyano-3,3-dimethyl-8-piperazin-1-yl-3,4-dihydro-1H-pyrano[3,4-c]pyridin-6-yl)thio]acetamide] | 15.9 ± 4.2 | 54.7 ± 28.7
CNC(=O)c1cc(Oc2ccc(NC(=O)Nc3ccc(Cl)c(C(F)(F)F)c3)cc2)ccn1 [Sorafenib, reference compound] | 84 ± 14 | 
